According to patent US11541050B2, “Pyrimidine derivatives for the treatment of viral infections” (JANSSEN SCIENCES IRELAND UC, priority 2011, dated 2023):

Columns and labels:
Assay type in all cases: cell-based
Set-up in all cases: unit not given here
[1] = test system: human TLR8 mutant sequence comprising a deletion in the second leucine-rich repeat; assay: TLR8 cellular NFκB-luc reporter assay, mutant TLR8 with deletion in the second leucine-rich repeat; details: lowest effective concentration
Experimental: (§1) The ability of compounds to activate human TLR7 and/or TLR8 was assessed in a cellular reporter assay using HEK293 cells transiently transfected with a TLR7 or TLR8 expression vector and NFκB-luc reporter construct. In one instance the TLR expression construct expresses the respective wild type sequence or a mutant sequence comprising a deletion in the second leucine-rich repeat of the TLR.
(§2) Briefly, HEK293 cells were grown in culture medium (DMEM supplemented with 10% FCS and 2 mM Glutamine). For transfection of cells in 10 cm dishes, cells were detached with Trypsin-EDTA, transfected with a mix of CMV-TLR7 or TLR8 plasmid (750 ng), NFκB-luc plasmid (375 ng) and a transfection reagent and incubated for 48 hours at 37° C. in a humidified 5% CO2 atmosphere. […] Thirty microliters of cells were then dispensed into each well in 384-well plates, where 10 μL of compound in 4% DMSO was already present. Following 6 hours incubation at 37° C., 5% CO2, the luciferase activity was determined by adding 15 μl of Steady Lite Plus substrate (Perkin Elmer) to each well and readout performed on a ViewLux ultraHTS microplate imager (Perkin Elmer). Dose response curves were generated from measurements performed in quadruplicates.

[2] = target: T1, human TLR7 (wild type sequence) (Homo sapiens, UniProt Q9NYK1); assay: TLR7 cellular NFκB-luc reporter assay, wild type TLR7; details: lowest effective concentration, wild type TLR7
T1 construct: expressed in transfected cells; host or cells: HEK293
T1 sequence (Q9NYK1 27-1049): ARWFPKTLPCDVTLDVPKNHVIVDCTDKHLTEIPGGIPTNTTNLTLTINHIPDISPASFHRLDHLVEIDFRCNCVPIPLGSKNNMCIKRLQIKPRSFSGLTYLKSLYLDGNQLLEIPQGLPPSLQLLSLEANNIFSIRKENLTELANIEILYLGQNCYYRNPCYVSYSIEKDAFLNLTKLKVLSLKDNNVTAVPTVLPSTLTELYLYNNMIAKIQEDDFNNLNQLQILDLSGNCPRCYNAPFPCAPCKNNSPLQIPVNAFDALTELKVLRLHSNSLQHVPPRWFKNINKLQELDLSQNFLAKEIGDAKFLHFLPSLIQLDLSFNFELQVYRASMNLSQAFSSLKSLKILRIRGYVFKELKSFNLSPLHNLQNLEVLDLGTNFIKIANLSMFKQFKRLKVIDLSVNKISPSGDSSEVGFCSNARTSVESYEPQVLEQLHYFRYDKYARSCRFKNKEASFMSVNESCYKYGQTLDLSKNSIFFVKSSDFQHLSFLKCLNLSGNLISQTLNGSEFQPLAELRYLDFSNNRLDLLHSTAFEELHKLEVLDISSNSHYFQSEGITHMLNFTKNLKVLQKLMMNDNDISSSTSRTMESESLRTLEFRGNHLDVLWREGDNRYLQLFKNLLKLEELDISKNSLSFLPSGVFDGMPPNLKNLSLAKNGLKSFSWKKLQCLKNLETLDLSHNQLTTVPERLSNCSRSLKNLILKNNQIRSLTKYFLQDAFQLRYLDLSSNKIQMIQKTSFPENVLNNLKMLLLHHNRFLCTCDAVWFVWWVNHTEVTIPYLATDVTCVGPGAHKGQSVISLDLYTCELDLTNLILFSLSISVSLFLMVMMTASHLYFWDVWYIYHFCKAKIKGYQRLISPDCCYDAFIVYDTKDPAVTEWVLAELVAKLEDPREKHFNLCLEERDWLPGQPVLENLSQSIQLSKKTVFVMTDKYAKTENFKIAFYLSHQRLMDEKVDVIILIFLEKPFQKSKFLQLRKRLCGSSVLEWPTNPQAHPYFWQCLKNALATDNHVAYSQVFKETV
Procedure, shortened: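 Luciferase signal read after 6 h compound incubation at 37 °C in HEK293 cells carrying transiently transfected TLR7 or TLR8 (wild type or LRR2-deletion) and NFκB-luc. Values are lowest effective concentrations from quadruplicate dose-response curves, effect ≥2-fold above assay SD.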

[3] = test system: human TLR7 mutant sequence comprising a deletion in the second leucine-rich repeat; assay: TLR7 cellular NFκB-luc reporter assay, mutant TLR7 with deletion in the second leucine-rich repeat; details: lowest effective concentration
Experimental: as §1, §2

Row | Compound | TLR8-dIRR2_LEC [1] | TLR7-wt_LEC [2] | TLR7-dIRR2_LEC [3]
1 | CCC[C@@H](C)Nc1nc(N)ncc1OCc1cn2ccccc2n1 [Compound 253] | 6.230 | 12.760 | >25
2 | CCC[C@@H](CO)Nc1nc(N)ncc1OCc1cc(C)nn1C [Compound 254] | 0.364 | 1.770 | 0.467
3 | CCCC[C@@H](CO)Nc1nc(N)ncc1OCc1cc(C)n(C)n1 [Compound 255] | 0.315 | 0.552 | 0.515
4 | CCC[C@@H](CO)Nc1nc(N)ncc1OCc1cccc(C(N)=O)n1 [Compound 256] | 0.039 | 1.630 | 0.100
5 | CCC[C@@H](CO)Nc1nc(N)ncc1OCc1cc(C)n(C)n1 [Compound 257] | 0.304 | 0.697 | 0.444
6 | CCC[C@@H](CO)Nc1nc(N)ncc1OCc1cc2ccccc2cn1 [Compound 258] | 0.060 | 0.074 | 0.153
7 | CCCC[C@@H](CO)Nc1nc(N)ncc1OCc1cccc(C(=O)O)n1 [Compound 259] | 1.250 | 6.980 | 3.150
8 | CCC[C@@H](CO)Nc1nc(N)ncc1OCc1cccc(C(=O)O)n1 [Compound 260] | >8.14 | 4.850 | 2.830
9 | CCCCNc1nc(N)ncc1O[C@@H](C)c1ccccn1 [Compound 262] | 0.363 | 0.658 | 0.168
10 | CCC[C@H](C)Nc1nc(N)ncc1OCc1nccc(OC)c1OC [Compound 263] | 0.056 | 0.049 | 0.159
11 | CCC[C@@H](CCO)Nc1nc(N)ncc1OCc1cc(C)nn1C [Compound 264] | 0.087 | 0.215 | 0.489
12 | CCCC(C)Nc1nc(N)ncc1OCCCc1ccc2c(c1)OCO2 (stereo not drawn) [Compound 265] | 0.591 | 0.752 | 3.700
13 | CCCC[C@@H](CCO)Nc1nc(N)ncc1OCCOC [Compound 266] | 0.557 | 1.070 | 1.890
14 | CCCC(C)Nc1nc(N)ncc1OCCOC (stereo not drawn) [Compound 267] | 1.710 | 4.880 | 0.719
15 | CCC[C@@H](CCO)Nc1nc(N)ncc1OCCOC [Compound 268] | 1.170 | 2.100 | 1.800
16 | CCCCNc1nc(N)ncc1OCCN1CCOCC1 [Compound 269] | 9.750 | 24.550 | 8.280
17 | CCC[C@@H](CCO)Nc1nc(N)ncc1OCc1cccc(C(N)=O)n1 [Compound 270] | 0.006 | 0.109 | 0.131

Row | Compound | TLR8-dIRR2_LEC [1] | TLR7-wt_LEC [2] | TLR7-dIRR2_LEC [3]
18 | CCC[C@@H](CCO)Nc1nc(N)ncc1OCc1cccnc1 [Compound 271] | 0.088 | 0.261 | 0.511
19 | CCCC[C@@H](CCO)Nc1nc(N)ncc1OCc1cccnc1 [Compound 272] | 0.084 | 0.207 | 1.110
20 | CCCC[C@@H](CO)Nc1nc(N)ncc1OCc1cccnc1 [Compound 274] | 0.357 | 1.140 | 0.303
21 | CCCCNc1nc(N)ncc1OCCOCC(F)(F)F [Compound 276] | 0.652 | 3.260 | 0.707
22 | CCC[C@@H](CO)Nc1nc(N)ncc1OCc1cccnn1 [Compound 277] | 0.135 | 1.180 | 0.438
23 | CCCC[C@@H](CO)Nc1nc(N)ncc1OCc1cccnn1 [Compound 278] | 0.136 | 0.880 | 0.270
24 | CCC[C@@H](CCO)Nc1nc(N)ncc1OCc1cccnn1 [Compound 279] | 0.034 | 0.724 | 1.100
25 | CCCC[C@@H](CCO)Nc1nc(N)ncc1OCc1cccnn1 [Compound 280] | 0.038 | 0.392 | 1.450
26 | CCCCNc1nc(N)ncc1OCc1ccc(CO)cc1 [Compound 281] | 0.191 | 0.472 | 1.630
27 | CCCC[C@@H](CCO)Nc1nc(N)ncc1OCc1cccc(C(N)=O)n1 [Compound 282] | 0.005 | 0.133 | 0.502
28 | CCC[C@@H](CCO)Nc1cc(O[C@@H]2CCc3c(Cl)ccnc32)nc(N)n1 [Compound 283] | 4.350 | 17.180 | 8.320
29 | CCC[C@@H](CCO)Nc1nc(N)ncc1O[C@H]1CCc2c(Cl)ccnc21 [Compound 284] | 2.150 | 9.910 | 10.300
30 | CCC[C@@H](CCO)Nc1nc(N)ncc1OCc1cn(-c2ccccc2)nn1 [Compound 285] | 0.036 | 0.266 | 0.530
31 | CCC[C@@H](CCO)Nc1nc(N)nc(C)c1OCc1nccc2ccccc12 [Compound 286] | 0.128 | 0.620 | 7.660
32 | CCCCNc1nc(N)ncc1OC[C@H](C)OC [Compound 287] | 3.560 | 15.530 | 5.380
33 | CCCCNc1nc(N)ncc1OCC(CC)OC (stereo not drawn) [Compound 288] | 14.890 | >25 | 10.200
34 | CCCCNc1nc(N)ncc1OCCOCC(C)C [Compound 289] | 0.647 | 0.875 | 0.930
